By melting point is commonly meant the temperature of the solid-liquid transition.

The results in this text go back to US8293768B2, “Organic compounds” (Novartis AG, priority 2006, dated 2012).

As for `CCOC(=O)c1sc(N2CCN(Cc3ccc(Cl)cc3)C2=O)nc1C` [Example 10.3, ethyl 2-(3-(4-chlorobenzyl)-2-oxoimidazolidin-1-yl)-4-methylthiazole-5-carboxylate], the melting point was 117 to 119 °C.
`Cc1csc(N2CCN(Cc3ccc(C(F)(F)F)cc3)C2=O)n1` [Example 5.14, 1-(4-methylthiazol-2-yl)-3-(4-(trifluoromethyl)benzyl)imidazolidin-2-one] gave a melting point of 102 to 103 °C.
Under `Cc1nc(N2C(=O)N(CCc3ccc(F)cc3)CC2O)sc1C(=O)NCc1cccnc1` (stereo not shown) [Example 16.1, 2-(3-(4-fluorophenethyl)-5-hydroxy-2-oxoimidazolidin-1-yl)-4-methyl-N-(pyridin-3-ylmethyl)thiazole-5-carboxamide] stands 182 to 184 °C.
As for `Cc1nc(N2CCN(CC3CC3)C2=O)sc1C(=O)NCc1ccccc1` [Example 9.14, N-benzyl-2-(3-(cyclopropylmethyl)-2-oxoimidazolidin-1-yl)-4-methylthiazole-5-carboxamide], the melting point was in the range of 142 to 143 °C.
For `Cc1nc(N2CCN(Cc3ccc(C(F)F)o3)C2=O)sc1C(=O)NCc1cccnc1` [Example 9.45, 2-(3-((5-(difluoromethyl)furan-2-yl)methyl)-2-oxoimidazolidin-1-yl)-4-methyl-N-(pyridin-3-ylmethyl)thiazole-5-carboxamide], the melting point fell in the range of 142 to 143 °C.
For `Cc1nc(N2CCN(Cc3ccccc3C(=O)O)C2=O)sc1C(=O)NCc1ccccc1` [Example 25.4, 2-((3-(5-(benzylcarbamoyl)-4-methylthiazol-2-yl)-2-oxoimidazolidin-1-yl)methyl)benzoic acid], the melting point lay within 153 to 156 °C.
The compound `Cc1cc(N2CCN(Cc3ccc(C(F)(F)F)cc3)C2=O)sc1C(=O)NCc1cccnc1` [Example 15, 3-methyl-5-(2-oxo-3-(4-(trifluoromethyl)benzyl)imidazolidin-1-yl)-N-(pyridin-3-ylmethyl)thiophene-2-carboxamide] had a melting point of 102 to 104 °C.
In turn, `Cc1nc(N2CCN(Cc3ccc(F)cc3)C2=O)sc1C(=O)N(C)C` [Example 32.22, 2-(3-(4-fluorobenzyl)-2-oxoimidazolidin-1-yl)-N,N,4-trimethylthiazole-5-carboxamide] came in with a melting point of 162 to 164 °C.
Take `Cc1csc(N2CCN(Cc3ccc(C(=O)NCc4ccccc4)cc3)C2=O)n1` [Example 8.9, N-benzyl-4-((3-(4-methylthiazol-2-yl)-2-oxoimidazolidin-1-yl)methyl)benzamide]: the melting point lay in the range of 185 to 186 °C.
Take `Cc1nc(N2CCN(Cc3ncoc3-c3ccccc3)C2=O)sc1C(=O)NCc1cccnc1` [Example 32.5, 4-methyl-2-(2-oxo-3-((5-phenyloxazol-4-yl)methyl)imidazolidin-1-yl)-N-(pyridin-3-ylmethyl)thiazole-5-carboxamide]: the melting point lay in the range of 78 to 81 °C.
Compound `COC(=O)c1cccc(CN2CCN(c3nc(C)c(C(=O)NCc4ccccc4)s3)C2=O)c1` [Example 23.9, methyl 3-((3-(5-(benzylcarbamoyl)-4-methylthiazol-2-yl)-2-oxoimidazolidin-1-yl)methyl)benzoate] yielded a melting point of 49 to 51 °C.
Under `Cc1csc(N2CCN(Cc3ccc(C(=O)O)cc3)C2=O)n1` [Example 6.23, 4-((3-(4-methylthiazol-2-yl)-2-oxoimidazolidin-1-yl)methyl)benzoic acid] stands 222 to 224 °C; under `Cc1nc(N2C(=O)N(Cc3ccc(F)cc3)CC2O)sc1C(=O)NCc1cccnc1` (stereo not shown) [Example 16.2, 2-(3-(4-fluorobenzyl)-5-hydroxy-2-oxoimidazolidin-1-yl)-4-methyl-N-(pyridin-3-ylmethyl)thiazole-5-carboxamide], 64 to 66 °C; under `Cc1nc(N2CCN(Cc3ccccc3)S2(=O)=O)sc1C(=O)NCc1cccnc1` [Example 27.2, 2-(5-benzyl-1,1-dioxido-1,2,5-thiadiazolidin-2-yl)-4-methyl-N-(pyridin-3-ylmethyl)-1,3-thiazole-5-carboxamide], 140 to 142 °C.
`Cc1nc(N2CCN(Cc3ccc(OC(F)(F)F)cc3)C2=O)sc1C(=O)NCCc1ccccc1` [Example 9.31, 4-methyl-2-(2-oxo-3-(4-(trifluoromethoxy)benzyl)imidazolidin-1-yl)-N-phenethylthiazole-5-carboxamide] came in with a melting point of 184 to 185 °C.
The result for `Cc1cc(N2CCN(Cc3ccc(F)cc3)C2=O)sc1C(=O)NCc1nc2ccccc2[nH]1` [Example 55.4, N-((1H-benzo[d]imidazol-2-yl)methyl)-5-(3-(4-fluorobenzyl)-2-oxoimidazolidin-1-yl)-3-methylthiophene-2-carboxamide] reads 265 to 267 °C; that for `Cc1cc(-n2cnn(Cc3ccc(F)cc3)c2=O)sc1C(=O)NCc1ncco1` [Example 31.6, 5-(1-(4-fluorobenzyl)-5-oxo-1H-1,2,4-triazol-4(5H)-yl)-3-methyl-N-(oxazol-2-ylmethyl)thiophene-2-carboxamide], 163 to 165 °C; that for `Cc1nc(-n2ccn(CCc3ccc(F)cc3)c2=O)sc1C(=O)NCc1cccnc1` [Example 17.1, 2-(3-(4-fluorophenethyl)-2-oxo-2,3-dihydro-1H-imidazol-1-yl)-4-methyl-N-(pyridin-3-ylmethyl)thiazole-5-carboxamide], 160 to 162 °C.
`Cc1nc(N2CCN(Cc3ccc(C(F)(F)F)o3)C2=O)sc1C(=O)NCc1ccccc1` [Example 23.4, N-benzyl-4-methyl-2-(2-oxo-3-((5-(trifluoromethyl)furan-2-yl)methyl)imidazolidin-1-yl)thiazole-5-carboxamide] yielded a melting point of 143 to 145 °C.
Under `Cc1nc(-n2cnn(CCOCc3ccc(F)cc3)c2=O)sc1C(=O)NCc1cccnc1` [Example 49, 2-(1-(2-(4-fluorobenzyloxy)ethyl)-5-oxo-1H-1,2,4-triazol-4(5H)-yl)-4-methyl-N-(pyridin-3-ylmethyl)thiazole-5-carboxamide] stands 235 to 236 °C.
`Cc1nc(N2CCN(CC(=O)NCc3ccc(F)cc3)C2=O)sc1C(=O)NCc1ccccc1` [Example 15.5, N-benzyl-2-(3-(2-(4-fluorobenzylamino)-2-oxoethyl)-2-oxoimidazolidin-1-yl)-4-methylthiazole-5-carboxamide] registered a melting point of 232 to 234 °C.
Consider `Cc1nc(-n2cnn(Cc3ccc(F)cc3)c2=O)sc1C(=O)NCc1ncco1` [Example 21.8, 2-(1-(4-fluorobenzyl)-5-oxo-1H-1,2,4-triazol-4(5H)-yl)-4-methyl-N-(oxazol-2-ylmethyl)thiazole-5-carboxamide], for which the melting point lay within 152 to 153 °C.
Under `CCOC(=O)c1sc(N2CCNC2=O)nc1C` [Example 3, ethyl 4-methyl-2-(2-oxoimidazolidin-1-yl)thiazole-5-carboxylate] stands 197 to 199 °C; under `Cc1nc(N2CCN(Cc3c(C)noc3-c3ccccc3)C2=O)sc1C(=O)NCc1cccnc1` [Example 32.4, 4-methyl-2-(3-((3-methyl-5-phenylisoxazol-4-yl)methyl)-2-oxoimidazolidin-1-yl)-N-(pyridin-3-ylmethyl)thiazole-5-carboxamide], 109 to 111 °C.
`Cc1nc(N2CCN(CCc3ccccc3)C2=O)sc1C(=O)NCc1ccccc1` [Example 9.11, N-benzyl-4-methyl-2-(2-oxo-3-phenethylimidazolidin-1-yl)thiazole-5-carboxamide] displayed a melting point of 156 to 157 °C.
For the compound `Cc1nc(-n2cnn(Cc3ccc(F)cc3)c2=O)sc1C(=O)NCc1cn(C)cn1` [Example 21.14, 2-(1-(4-fluorobenzyl)-5-oxo-1H-1,2,4-triazol-4(5H)-yl)-4-methyl-N-((1-methyl-1H-imidazol-4-yl)methyl)thiazole-5-carboxamide], the melting point is 225 to 226 °C.
The compound `Cc1nc(N2CCN(Cc3ccccc3)C2=O)sc1C(=O)O` [Example 6.2, 2-(3-benzyl-2-oxoimidazolidin-1-yl)-4-methylthiazole-5-carboxylic acid] yielded a melting point of 248 to 249 °C.
As for `CCOC(=O)c1sc(N2CCN(Cc3ccccc3)C2=O)nc1C` [Example 5, ethyl 2-(3-benzyl-2-oxoimidazolidin-1-yl)-4-methylthiazole-5-carboxylate], the melting point is 122 to 124 °C.
Turning to `Cc1nc(N2CCN(Cc3ccccc3)C2=N)sc1C(=O)NCc1ccc(F)cc1` [Example 27.4, 2-(3-benzyl-2-iminoimidazolidin-1-yl)-N-(4-fluorobenzyl)-4-methylthiazole-5-carboxamide], the melting point lay within 142 to 144 °C.
The compound `Cc1nc(N2CCN(Cc3ccc(OC(F)(F)F)cc3)C2=O)sc1C(=O)Nc1ccccc1` [Example 9.30, 4-methyl-2-(2-oxo-3-(4-(trifluoromethoxy)benzyl)imidazolidin-1-yl)-N-phenylthiazole-5-carboxamide] displayed a melting point of 187 to 188 °C.
Compound `Cc1nc(N2CCN(c3ccccc3)C2=O)sc1C(=O)NCc1ccccc1` [Example 7, N-benzyl-4-methyl-2-(2-oxo-3-phenylimidazolidin-1-yl)thiazole-5-carboxamide] showed a melting point of 234 to 236 °C.
For `Cc1nc(N2CCN(Cc3nc(C)n(-c4ccccc4)n3)C2=O)sc1C(=O)NCc1ccccc1` [Example 23.5, N-benzyl-4-methyl-2-(3-((5-methyl-1-phenyl-1H-1,2,4-triazol-3-yl)methyl)-2-oxoimidazolidin-1-yl)thiazole-5-carboxamide], the melting point lay within 139 to 141 °C.
For the compound `Cc1nc(N2CCN(Cc3ccccc3)C2=O)sc1C(=O)NCc1cccc(Cl)c1` [Example 9.6, 2-(3-benzyl-2-oxoimidazolidin-1-yl)-N-(3-chlorobenzyl)-4-methylthiazole-5-carboxamide], the melting point lay in the range of 178 to 179 °C.
`Cc1nc(N2CCN(Cc3nccc4ccccc34)C2=O)sc1C(=O)NCc1cccnc1` [Example 32.1, 2-(3-(isoquinolin-1-ylmethyl)-2-oxoimidazolidin-1-yl)-4-methyl-N-(pyridin-3-ylmethyl)thiazole-5-carboxamide] yielded a melting point of 151 to 153 °C.
